# According to ChEMBL document CHEMBL1201862, “PubChem BioAssay data set” (2004):
# The source made the active and inactive calls.
# Key:
# Beta-galactosidase = Beta-galactosidase (Escherichia coli, UniProt Q8VNN2); experiment: Dose response counterscreen for EBI2 assay utilizing the enzyme, b-galactosidase.; format: functional
# Kallikrein-7 = Kallikrein-7 (Homo sapiens, UniProt P49862); experiment: Fluorescence Intensity-based biochemical primary high throughput dose response assay to identify activators of kallikrein-7 (K7) zymogen.
# [1] = THP-1 cell cytotoxicity, dose response, cytotoxicity control for non-replicating M. tuberculosis project (AID 489025); format: functional
# [2] = HPDE-C7 pancreatic duct cell viability loss – fluorescence, HTS (AID 430); format: functional, cell-based; details: Homo sapiens
# [3] = viability loss of HPDE-C7K cells – cell-based, fluorescence, HTS, primary screen (AID 431); format: functional; details: Homo sapiens
# cells = format: functional
# [4] = biological target: T1, Corticotropin-releasing factor receptor 2/Corticotropin-releasing factor-binding protein (Homo sapiens, UniProt P24387+Q13324); experiment: Dose Response confirmation of uHTS hits for small molecule antagonists of the CRF-binding protein and CRF-R2 receptor complex.; format: functional; details: read-out: IC50_Mean
# T1 sequence (Q13324 whole entry): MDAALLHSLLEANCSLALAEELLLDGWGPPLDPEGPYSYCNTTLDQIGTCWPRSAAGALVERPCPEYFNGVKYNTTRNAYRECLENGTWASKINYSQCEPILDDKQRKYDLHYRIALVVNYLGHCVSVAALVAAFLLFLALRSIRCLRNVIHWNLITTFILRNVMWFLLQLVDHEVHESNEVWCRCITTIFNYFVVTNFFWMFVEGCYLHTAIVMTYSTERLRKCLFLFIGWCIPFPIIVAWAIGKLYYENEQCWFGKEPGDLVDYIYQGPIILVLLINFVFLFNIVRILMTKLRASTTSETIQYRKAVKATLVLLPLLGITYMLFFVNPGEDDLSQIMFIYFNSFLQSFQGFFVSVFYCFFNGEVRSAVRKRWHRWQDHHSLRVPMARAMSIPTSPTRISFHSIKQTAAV
# T1 sequence (P24387 whole entry): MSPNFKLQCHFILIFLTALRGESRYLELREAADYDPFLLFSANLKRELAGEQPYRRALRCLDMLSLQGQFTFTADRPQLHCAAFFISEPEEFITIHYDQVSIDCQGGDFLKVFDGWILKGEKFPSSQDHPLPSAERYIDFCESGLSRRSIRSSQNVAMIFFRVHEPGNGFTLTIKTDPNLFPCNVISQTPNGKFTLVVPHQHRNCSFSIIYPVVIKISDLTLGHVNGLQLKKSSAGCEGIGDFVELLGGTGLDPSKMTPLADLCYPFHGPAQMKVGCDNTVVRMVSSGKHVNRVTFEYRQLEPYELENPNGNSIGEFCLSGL
# [5] = biological target: T1, Corticotropin-releasing factor receptor 2/Corticotropin-releasing factor-binding protein; experiment: activators of CRF receptor 2 with binding protein – uHTS hits, confirmation (AID 602473); format: functional; details: read-out: EC50_Mean
# [6] = blockers of CRF-binding protein–CRF-R2 complex – cell-based, uHTS hits, 384-well, dose response (AID 651639); format: functional, Homo sapiens; details: read-out: IC50_Mean
# [7] = non-specific 3'UTR reporter inhibition in Clone20-Shn3RL – cell-based, Renilla luciferase, cherry-picked, counter-screen for Shn3 inhibitor project, dose response (AID 624133); format: functional
# [8] = reduction of Shn3 3'UTR-driven luciferase in osteoblasts – cell-based, Clone20 osteoblasts, firefly luciferase, cherry-picked, dose response (AID 624132); format: functional;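 also: firefly luciferase luminescence from reporter carrying the Shn3 3'UTR in osteoblasts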
# Paired box protein Pax-8 = Paired box protein Pax-8 (Homo sapiens, UniProt Q06710); experiment: PAX8 transcriptional activity inhibition in RMG-I – RMG-I cells, luciferase, cherry-pick, dose response (AID 687027); format: functional, cell-based;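 also: luciferase reporter driven by Pax8 target thyroperoxidase promoter measured by SteadyGlo luminescence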
# [9] = loss of viability in HepG2 cells – cell-based, CellTiter-Glo, cherry-picked, cytotoxicity control for Shn3 inhibitor project, dose response (AID 624134); format: functional
# [10] = reduced cellular PGC1a acetyl-lysine signal – cell-based, cherry-picked samples, dose response (AID 720514); format: functional;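 also: potency may reflect raised or lowered acetylation signal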
# [11] = biological target: T2, Hepatocyte nuclear factor 4-alpha (Homo sapiens, UniProt P41235); format: functional, cell-based;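 also: biochemical luminescence-based dose-response counterscreen measuring inhibition of HNF4 dimerization, run alongside a screen for blockers of ABHD5–perilipin-5 interaction; split luciferase complementation of HNF4 fusion proteins in cell lysate measuring dimerization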
# T2 sequence (P41235 whole entry): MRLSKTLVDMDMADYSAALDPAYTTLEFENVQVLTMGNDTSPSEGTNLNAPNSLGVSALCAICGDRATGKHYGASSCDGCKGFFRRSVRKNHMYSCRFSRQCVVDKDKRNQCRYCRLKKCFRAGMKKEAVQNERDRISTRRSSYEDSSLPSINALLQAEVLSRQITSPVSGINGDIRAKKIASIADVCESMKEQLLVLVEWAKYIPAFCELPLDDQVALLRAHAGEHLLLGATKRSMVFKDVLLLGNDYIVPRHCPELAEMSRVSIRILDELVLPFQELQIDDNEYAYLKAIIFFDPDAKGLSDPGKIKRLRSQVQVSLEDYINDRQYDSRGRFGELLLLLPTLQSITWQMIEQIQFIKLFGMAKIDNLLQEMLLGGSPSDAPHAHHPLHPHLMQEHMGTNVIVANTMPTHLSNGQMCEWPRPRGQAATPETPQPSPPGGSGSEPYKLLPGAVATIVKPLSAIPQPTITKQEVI
# [12] = OVCAR-3 cell viability loss – plate reader, dry powder samples, PAX8 inhibitor project, dose response (AID 743044); format: functional, cell-based
# [13] = OVCAR8 cell viability loss – plate reader, dry powder samples, PAX8 project, dose response (AID 743197); format: functional, cell-based; details: OVCAR-8
# [14] = biological target: T3, Mannose-6-phosphate isomerase (Homo sapiens, UniProt P34949); experiment: MPI inhibition at elevated mannose 6-phosphate – biochemical, fluorescence intensity, high mannose 6-phosphate, primary screen (AID 1220)
# T3 sequence (P34949 whole entry): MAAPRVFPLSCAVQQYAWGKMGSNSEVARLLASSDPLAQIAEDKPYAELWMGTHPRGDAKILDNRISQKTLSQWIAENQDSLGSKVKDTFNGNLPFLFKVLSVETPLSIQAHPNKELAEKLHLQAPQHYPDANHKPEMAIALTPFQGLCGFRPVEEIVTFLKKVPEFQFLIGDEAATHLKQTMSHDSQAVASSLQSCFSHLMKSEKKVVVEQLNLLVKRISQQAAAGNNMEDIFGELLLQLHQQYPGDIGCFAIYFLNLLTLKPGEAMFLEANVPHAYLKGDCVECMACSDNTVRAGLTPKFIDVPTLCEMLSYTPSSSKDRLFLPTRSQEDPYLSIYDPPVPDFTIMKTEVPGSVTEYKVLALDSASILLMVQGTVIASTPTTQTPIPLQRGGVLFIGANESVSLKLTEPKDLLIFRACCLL
# [15] = biological target: T4, Endoribonuclease toxin MazF (Escherichia coli K-12, UniProt P0AE70); experiment: substrate-only fluorescence increase artefacts – biochemical, single-stranded RNase substrate, counter-screen for MazEF activator project, dose response (AID 588502); format: functional
# T4 sequence (P0AE70 whole entry): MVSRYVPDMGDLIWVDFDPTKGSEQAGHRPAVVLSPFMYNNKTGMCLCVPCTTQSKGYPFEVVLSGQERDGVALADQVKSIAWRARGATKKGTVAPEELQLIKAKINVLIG
# [16] = biological target: T4, Endoribonuclease toxin MazF; experiment: activation of MazEF endoribonuclease cleavage – biochemical, fluorescence, single-stranded RNA substrate, uHTS hits, dose response (AID 588481); format: functional
# [17] = biological target: Eukaryotic translation initiation factor 4E (Mus musculus, UniProt P63073); experiment: blockers of eIF4G binding by eIF4E – biochemical, TR-FRET, dose response (AID 855); format: functional;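 also: potency for disrupting eIF4E binding to eIF4GI seen as loss of FRET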
# [18] = blockers of HIV-1 envelope-mediated cell-cell fusion – cherry-pick, dose response (AID 652057); format: functional, cell-based
# [19] = viability loss in CEM21 cells – cell-based, CellTiter-Glo luminescence, cherry-picked, cytotoxicity control for viral fusion inhibitor project, dose response (AID 652042); format: functional;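 also: potency for signal decrease meaning cytotoxicity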
# [20] = off-target signal loss in HeLa-CEM21 co-culture – HeLa F-luc CTL cells, cherry-picked, counter-screen for HIV-1 Env fusion inhibitor project, dose response (AID 652040); format: functional, cell-based;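 also: potency for signal decrease marking cytotoxic or nonspecific inhibition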
# [21] = HIV-1 AD8 envelope cell-cell fusion blockers – cherry-pick, dose response (AID 652062); format: functional, cell-based;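 also: luciferase signal from cell-cell fusion driven by HIV-1 clade B AD8 Env; potency is for inhibitors of fusion seen as a drop in luminescence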
# [22] = blockers of HIV-1 ZM109 envelope-driven cell-cell fusion – HeLa effector, CEM target cells, luciferase, cherry-pick, dose response (AID 652058); format: functional, cell-based;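 also: luciferase signal from HIV-1 Env mediated cell-cell fusion of effector and target cells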
# Chain of Beta-galactosidase (Q8VNN2 whole entry): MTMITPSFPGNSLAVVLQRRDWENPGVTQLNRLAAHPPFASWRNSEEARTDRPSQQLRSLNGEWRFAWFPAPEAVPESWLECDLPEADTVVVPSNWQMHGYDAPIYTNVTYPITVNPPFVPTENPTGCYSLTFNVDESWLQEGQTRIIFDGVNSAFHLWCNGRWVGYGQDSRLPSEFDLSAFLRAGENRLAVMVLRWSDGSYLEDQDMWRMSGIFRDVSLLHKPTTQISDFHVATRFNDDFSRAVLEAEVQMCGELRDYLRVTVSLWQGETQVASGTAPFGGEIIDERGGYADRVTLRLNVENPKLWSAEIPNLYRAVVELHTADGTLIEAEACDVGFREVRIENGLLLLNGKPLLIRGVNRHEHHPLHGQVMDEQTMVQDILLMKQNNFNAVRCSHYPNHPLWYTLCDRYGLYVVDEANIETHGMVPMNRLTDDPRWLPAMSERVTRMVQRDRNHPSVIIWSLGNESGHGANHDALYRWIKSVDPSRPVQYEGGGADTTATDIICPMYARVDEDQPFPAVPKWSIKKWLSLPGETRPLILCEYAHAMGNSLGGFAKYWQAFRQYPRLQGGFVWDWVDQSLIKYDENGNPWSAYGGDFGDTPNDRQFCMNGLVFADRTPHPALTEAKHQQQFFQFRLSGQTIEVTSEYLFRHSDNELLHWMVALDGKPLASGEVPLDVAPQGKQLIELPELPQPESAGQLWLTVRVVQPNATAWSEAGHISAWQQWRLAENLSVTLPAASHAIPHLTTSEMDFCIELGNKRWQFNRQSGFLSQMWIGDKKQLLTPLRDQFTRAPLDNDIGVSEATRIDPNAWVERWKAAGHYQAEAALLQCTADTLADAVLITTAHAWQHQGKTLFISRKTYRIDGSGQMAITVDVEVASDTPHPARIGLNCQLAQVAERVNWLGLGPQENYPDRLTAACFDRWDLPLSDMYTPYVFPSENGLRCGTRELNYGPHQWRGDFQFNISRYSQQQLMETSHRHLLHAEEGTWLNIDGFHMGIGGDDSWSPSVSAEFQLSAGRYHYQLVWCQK
# Chain of Paired box protein Pax-8 (Q06710 whole entry): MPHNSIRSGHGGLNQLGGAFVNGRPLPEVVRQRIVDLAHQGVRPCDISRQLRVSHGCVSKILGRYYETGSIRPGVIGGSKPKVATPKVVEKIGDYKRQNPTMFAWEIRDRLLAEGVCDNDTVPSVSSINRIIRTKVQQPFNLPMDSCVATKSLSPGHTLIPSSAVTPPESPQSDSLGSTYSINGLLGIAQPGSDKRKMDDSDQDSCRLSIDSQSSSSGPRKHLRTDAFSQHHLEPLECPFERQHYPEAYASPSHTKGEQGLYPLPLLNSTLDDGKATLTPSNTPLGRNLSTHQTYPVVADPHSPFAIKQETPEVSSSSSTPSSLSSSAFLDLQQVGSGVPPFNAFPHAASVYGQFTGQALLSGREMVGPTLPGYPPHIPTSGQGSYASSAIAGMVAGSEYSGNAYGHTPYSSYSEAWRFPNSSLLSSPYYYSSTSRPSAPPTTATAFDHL
# Chain of Eukaryotic translation initiation factor 4E (P63073 whole entry, the tested form may be a part): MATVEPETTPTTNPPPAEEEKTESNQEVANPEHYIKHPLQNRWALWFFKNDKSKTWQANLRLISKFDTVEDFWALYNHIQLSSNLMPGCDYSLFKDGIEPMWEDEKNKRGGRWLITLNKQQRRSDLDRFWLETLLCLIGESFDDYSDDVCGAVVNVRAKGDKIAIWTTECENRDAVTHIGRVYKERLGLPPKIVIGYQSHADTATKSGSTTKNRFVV
# Chain of Kallikrein-7 (P49862 whole entry): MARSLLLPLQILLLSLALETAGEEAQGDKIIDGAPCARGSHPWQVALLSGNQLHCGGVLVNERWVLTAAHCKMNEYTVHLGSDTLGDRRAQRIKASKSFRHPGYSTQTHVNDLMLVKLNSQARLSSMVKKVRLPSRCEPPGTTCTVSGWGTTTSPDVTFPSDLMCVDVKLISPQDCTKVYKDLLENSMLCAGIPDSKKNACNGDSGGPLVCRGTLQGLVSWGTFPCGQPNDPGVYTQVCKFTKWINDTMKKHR
compound,measurement,setting,value
CCOc1ccc(N(CC(=O)NCCOc2ccc(C)cc2)S(=O)(=O)c2ccccc2)cc1,IC50,Beta-galactosidase,> 80 µM (inactive)
CCOC(=O)N1CCN(C(=O)COc2ccc3c(c2)C(=O)CC(C)(C)O3)CC1,EC50,Kallikrein-7,> 69.5 µM (inactive)
CCOC(=O)N1CCN(C(=O)CSc2ccc(Cl)cc2)CC1,IC50,Beta-galactosidase,> 80 µM (inactive)
CC(CN1CCOCC1)OC(=O)c1ccc(Br)cc1 (stereo not given),CC50,[1],38.2 µM (active)
same,EC50,[2],6.73 µM (active)
same,EC50,[3],9.11 µM (active)
same,IC50,cells,5.68 µM (active)
Cc1c(NS(=O)(=O)c2ccccc2)ccc([N+](=O)[O-])c1Cl,IC50,[4],3.86 µM (active)
same,EC50,[5],> 53 µM (inactive)
same,IC50,[6],13.2 µM (active)
C#CCN(C[C@@H]1[C@@H](OC(=O)NC2CCCC2)[C@@H](OC(=O)NC2CCCC2)Cn2c(=O)ccc(=O)n21)S(=O)(=O)c1ccc(C)cc1,AC50,[7],14.4 µM (active)
same,AC50,[8],12.9 µM (active)
same,AC50,Paired box protein Pax-8,6.12 µM (active)
same,AC50,[9],23.1 µM (active)
same,AC50,[10],3.87 µM (active)
same,IC50,[11],16.5 µM (inactive)
C[C@@H]1CCCCO[C@H](CN(C)CC2CCCCC2)[C@H](C)CN([C@@H](C)CO)C(=O)c2cc(NC(=O)Nc3ccccc3)ccc2O1,AC50,[12],57 µM (active)
same,AC50,Paired box protein Pax-8,10.9 µM (active)
same,AC50,[13],61 µM (active)
CC(C)N(C)c1ncnc2c1ncn2[C@H]1CN(Cc2ccc(Cl)cc2)C[C@@H](CO)O1,IC50,Beta-galactosidase,> 80 µM (inactive)
Oc1nc2cc(/N=C/c3c(O)ccc4cc(Br)ccc34)ccc2[nH]1,IC50,[14],> 50 µM (not active)
same,EC50,[15],5.48 µM (active)
same,EC50,[16],> 99 µM (inactive)
Fc1ccc(/N=c2\ssnc2Cl)c(F)c1,IC50,[14],25.3 µM (active)
same,IC50,[17],38.5 µM (inactive)
COc1cc(C(=O)O[C@H]2CC(C)=CC[C@@]3(C)CC[C@@](O)(C(C)C)[C@H]23)ccc1O [TEFERIN],AC50,[18],1.19 µM (active)
same,AC50,[19],35.6 µM (active)
same,AC50,[20],2.35 µM (active)
same,AC50,[21],4.06 µM (active)
same,AC50,[22],1.64 µM (active)
